In brackets after ≈: the same amount, converted by molar mass. Residues, ends and D or L forms follow the SMILES beside them.
Experiments:
[1] = Water solubility of the peptides; format: physicochemical
Excerpt: The physicochemical properties of the peptides of the present invention obtained by the above-described process are shown below.

[2] = tested on: human peripheral blood leukocytes; test: Measurement of phagocytosis activity (fluorescence-labeled latex beads, flow cytometry); format: cell-based; details: rate based on the control (only PBS)
Protocol: To human peripheral blood was added physiological saline containing phosphate buffer (PBS), and the resulting mixture was centrifuged at 1000 rpm for 5 minutes to wash blood cells. Then, the blood cells were suspended in PBS to prepare a suspension having a density of 4 x 10^6 cells/ml. To 100 µl of the suspension was added 10 µl of a solution of a peptide in PBS, followed by incubation at 37°C for 10 minutes. Then, 10 µl of a suspension of 4 x 10^8/ml fluorescence-labeled latex beads opsonized with human peripheral blood was added thereto, and the resulting mixture was incubated for 5 minutes. To the mixture was added PBS containing ethylenediaminetetraacetic acid (EDTA) to stop the reaction. The resulting mixture was centrifuged to separate blood cells, and an ammonium chloride hemolyzing agent was added thereto for hemolysis to obtain leukocytes. After the obtained leukocytes were suspended in PBS containing EDTA, the resulting suspension was subjected to flow cytometry, and the number of cells which phagocytosed latex beads was calculated.
The results are expressed in terms of the rate based on the control (containing only PBS).

[3] = tested on: C3H/HeSlc mice; test: Effect on hair growth of mouse (feed administration); format: in vivo; details: 20th day, control group subtracted
Protocol: A test of the effect on hair growth of mice was carried out referring to the method of Ogawa, et al. [The Journal of Dermatology, 10, 45-54 (1983)].
Nine-weeks-old male C3H/HeSlc mice whose hair cycle was in the telogen (Japan SLC) were divided into groups each consisting of 4 or 5 mice. Hair on the back of each mouse was carefully shaven using electric hair clippers and an electric shaver. Then, the mice were fed with the feeds prepared in Reference Examples 1-4.
The control group was fed only with a powder feed containing no peptide of the present invention (CE-2, Clea Japan, Inc.)
On the 20th day after the start of the test, the skin on the back of each mouse was cut off and photographed. Using an image processor (Avionics Co., Spicca II), the percentage of the hair-grown area to the total area of the skin on the back was calculated. The rate of the increased hair-grown area (%) was obtained by subtracting the hair-growing rate of the control group from the hair-growing rate of the group fed with a powder feed containing a peptide of the present invention.

[4] = tested on: mouse hair follicle cells; test: Cell growth-promoting effect on cultured mouse hair follicle cells (Neutral Red); format: cell-based, C3H mouse; details: 5 days culture
Protocol: Mouse hair follicle cells were separated and cultured according to a modification of the method of Tanigaki, et al. [Archives of Dermatological Research, 284, 290-296 (1992)].
The skin on the back of a 4-days-old C3H mouse (Nippon Charles River Co., Ltd.) was cut off and treated with Eagle's MEM (Eagle's Minimum Essential Medium, Nissui Pharmaceutical Co., Ltd.) containing 500 units/ml Dispase (Godo Shusei Co., Ltd.) and 5% fetal calf serum (FCS) at 4°C for 16 hours. Then, the epidermis was stripped from the skin section, and the obtained dermis layer was treated with DMEM (Dulbecco's Modified Eagle Medium) containing 0.25% Collagenase N-2 (Nitta Gelatin Co., Ltd.) and 10% FCS at 37°C for one hour to obtain a dermis suspension. The dermis suspension was filtered through a 212-µm nylon mesh (Nippon Rikagaku Kikai Co., Ltd.) and the filtrate was centrifuged at 1000 rpm for 5 minutes to obtain pellets containing hair follicle tissue. To the pellets was added calcium/magnesium-free PBS (Dulbecco's Phosphate-Buffered Saline) and the pellets were suspended therein using a pipette. The resulting suspension was allowed to stand for 15 minutes to precipitate the hair tissue. The same procedure as above (addition of calcium/magnesium-free PBS, preparation of a suspension using a pipette, and precipitation by standing for 15 minutes) was repeated three times using the obtained hair tissue. Then, the hair tissue was treated with an aqueous solution containing 0.1% ethylenediaminetetraacetic acid (EDTA) and 0.25% trypsin (Gibco) at 37°C for 5 minutes. To the resulting mixture was added DMEM containing 10% FCS to prepare a hair tissue cell suspension having a density of 3 x 10^5 cells/ml.
This hair tissue cell suspension was put into wells of a 24-well collagen-coated plate (Iwaki Glass Co., Ltd.) in an amount of 1 ml/well, followed by culturing in 5% CO2 at 37°C for 24 hours. After the completion of culturing, the medium was replaced by a medium prepared by adding to MCDB153 medium (Kyokuto Pharmaceutical Ind. Co., Ltd.) 5 mg/l bovine insulin (Sigma Chemical Co.), 5 µg/l mouse epidermal growth factor (EGF) (Takara Shuzo Co., Ltd.), 40 mg/l bovine pituitary extract (Kyokuto Pharmaceutical Ind. Co., Ltd.), 10 mg/l human transferrin (Sigma Chemical Co.), 0.4 mg/l hydrocortisone (Sigma Chemical Co.), 0.63 µg/l progesterone (Collaborative Research Co.), 14 mg/l O-phosphoethanolamine (Sigma Chemical Co.), 6.1 mg/l ethanolamine (Sigma Chemical Co.), 50 U/ml penicillin (Wako Pure Chemical Industries, Ltd.), 50 µg/ml streptomycin (Wako Pure Chemical Industries, Ltd.) and a dimethyl sulfoxide (DMSO) solution containing a peptide of the present invention (added in an amount of 1/100 by volume based on the medium), followed by further culturing in 5% CO2 at 37°C for 5 days. During the culturing, the medium was replaced with a fresh one every other day.
As a control, the cells were cultured in the same medium as above except that DMSO containing no peptide was added in an amount of 1/100 by volume based on the culture in place of DMSO containing the peptide.
The degree of cell growth was measured referring to the method using Neutral Red [Journal of Tissue Culture Method, 9, 1, 7-9 (1984)].
After the completion of culturing, the medium was sucked and the resulting cells were cultured in MCDB153 medium containing 50 mg/l Neutral Red (Sigma Chemical Co.) in 5% CO2 at 37°C for 3 hours. […] The degree of cell growth was determined by measuring the absorbance of the extract at 540 nm. […]

SMILES: CC[C@H](C)[C@H](NC(=O)[C@@H](N)CCSC)C(=O)N[C@@H](CC(C)C)C(=O)N[C@@H](CC(C)C)C(=O)O [MILL] (H-MILL-OH)
- solubility [1]: 200 µg/mL (≈ 409 µM)
- Phagocytosis activity ([2]; Concentration 3 µM): 1.28 ± 0.09
- Phagocytosis activity ([2]; Concentration 10 µM): 2.05 ± 0.08
- Phagocytosis activity ([2]; Concentration 30 µM): 2.97 ± 0.17

SMILES: CC[C@H](C)[C@H](NC(=O)[C@@H](N)CCSC)C(=O)N[C@@H](Cc1ccc(O)cc1)C(=O)N[C@@H](CC(C)C)C(=O)O [MIYL] (H-MIYL-OH)
- solubility [1]: 300 µg/mL (≈ 557 µM)
- Phagocytosis activity ([2]; Concentration 1 µM): 1.32 ± 0.15
- Phagocytosis activity ([2]; Concentration 3 µM): 2.21 ± 0.25
- Phagocytosis activity ([2]; Concentration 10 µM): 3.12 ± 0.32

SMILES: CC[C@H](C)[C@H](NC(=O)[C@@H](N)CCSC)C(=O)N[C@@H](Cc1ccccc1)C(=O)N[C@@H](CC(C)C)C(=O)O [MIFL] (H-MIFL-OH)
- solubility [1]: 200 µg/mL (≈ 383 µM)
- Phagocytosis activity ([2]; Concentration 0.1 µM): 1.10 ± 0.09
- Phagocytosis activity ([2]; Concentration 0.3 µM): 1.68 ± 0.08
- Phagocytosis activity ([2]; Concentration 1 µM): 2.45 ± 0.17
- Phagocytosis activity ([2]; Concentration 3 µM): 3.06 ± 0.25

SMILES: CC[C@H](C)[C@H](NC(=O)[C@@H](N)CCSC)C(=O)N[C@@H](Cc1c[nH]c2ccccc12)C(=O)N[C@@H](CC(C)C)C(=O)O [MIWL] (H-MIWL-OH)
- Rate of increased hair-grown area (%) ([3]; 0.05% addition to feed): 34.4%
- solubility [1]: 200 µg/mL (≈ 356 µM)
- Phagocytosis activity ([2]; Concentration 0.1 µM): 1.93 ± 0.18
- Phagocytosis activity ([2]; Concentration 0.3 µM): 2.74 ± 0.25
- Phagocytosis activity ([2]; Concentration 1 µM): 3.11 ± 0.07
- Phagocytosis activity ([2]; Concentration 3 µM): 3.04 ± 0.50

SMILES: CC[C@H](C)[C@H](NC(=O)[C@@H](NC(=O)[C@@H](N)CCSC)[C@@H](C)CC)C(=O)N[C@@H](CC(C)C)C(=O)O [MIIL] (H-MIIL-OH)
- solubility [1]: 200 µg/mL (≈ 409 µM)
- Phagocytosis activity ([2]; Concentration 1 µM): 1.18 ± 0.07
- Phagocytosis activity ([2]; Concentration 3 µM): 1.62 ± 0.08
- Phagocytosis activity ([2]; Concentration 10 µM): 2.52 ± 0.18
- Phagocytosis activity ([2]; Concentration 30 µM): 2.95 ± 0.20

SMILES: CC[C@H](C)[C@H](NC(=O)[C@@H](N)CCSC)C(=O)N[C@@H](Cc1c[nH]c2ccccc12)C(=O)O [MIW] (H-Met-Ile-Trp-OH)
- Rate of increased hair-grown area (%) ([3]; 0.005% addition to feed): 20.7%
- Rate of increased hair-grown area (%) ([3]; 0.05% addition to feed): 23.7%
- Relative cell growth rate (%) (based on the control) ([4]; Concentration 1 µM): 97%
- Relative cell growth rate (%) (based on the control) ([4]; Concentration 3 µM): 143%
- Relative cell growth rate (%) (based on the control) ([4]; Concentration 10 µM): 130%
- Relative cell growth rate (%) (based on the control) ([4]; Concentration 30 µM): 123%
- Relative cell growth rate (%) (based on the control) ([4]; Concentration 100 µM): 119%
- solubility [1]: 1000 µg/mL (≈ 2230 µM)

SMILES: CC[C@H](C)[C@H](NC(=O)[C@@H](N)CCSC)C(=O)N[C@@H](Cc1ccccc1)C(=O)O [MIF] (H-Met-Ile-Phe-OH)
- Rate of increased hair-grown area (%) ([3]; 0.005% addition to feed): 26.8%
- solubility [1]: 30000 µg/mL (≈ 73300 µM)
